{"source": "patent US5656449A", "about": "“Neutral unsymmetrical cyanine dyes” (Molecular Probes, Inc., priority 1995, dated 1997)", "key": {"Saccharomyces cerevisiae": {"tested_on": "Saccharomyces cerevisiae", "assay": "Viability determination of cultured yeast", "assay_type": "cell-based", "conditions": "1 μM dye, 15 minutes, 490 nm-excited", "method": "A culture of Saccharomyces cerevisiae is grown in 75 mL of yeast extract-peptone-dextrose (YPD) broth for 2 weeks at 30° C., shaking at 200 rpm in a capped 250 mL Erlenmeyer flask. A 2 mL sample is taken aseptically each day. One mL of this sample is serially diluted in sterile 2% glucose solution and 0.1 mL plated on YPD agar in standard r 100 mm petri dishes. Yeast numbers in the dilution samples having visible turbidity are quantified using a Petroff-Hauser counting chamber. The other 1 mL of the sample is centrifuged in a microcentrifuge at 5,000 rpm for 5 minutes, and resuspended in 100 μL of 1 μM Dye 509 in 2% sterile dextrose solution. After incubation for 15 minutes with the dye, the sample is diluted to 3 mL and the 490 nm-excited […] fluorescence is measured relative to a series of standard fluorescein solutions spanning a 10,000-fold range in fluorescence."}, "[1]": {"tested_on": "Lambda DNA/Hind III fragments", "assay": "Staining of nucleic acids in electrophoresis gels", "conditions": "for detection limit in DNA gel: 1% agarose/TBE minigel, 1 μM dye in 1XTBE, 30 minutes", "method": "Two separate 1% agarose/TBE (89 mM tris-borate, 2 mM EDTA) minigels are loaded with Lambda DNA/Hind III fragments in a 3-fold serial dilution series of 1 μg, 333 ng, 111 ng, 37.0 ng, 12.4 ng 4.1 ng, 1.4ng. 0.5 ng, 0.2 ng, and 0.05 ng per lane. After the gels are subjected to electrophoresis, the gels are stained with either Dye 510 or Dye 798, as a 1 μM solution in 1XTBE for 30 minutes.\nAfter staining, each gel is illuminated at 254 nm using an epi-illuminator.Gels are photographed with POLAROID 667 black and white print film, Dye 798 stains the gel with a detection limit of 350 pg/band, while Dye 510 stains the gel with a detection limit of 180 pg/band."}, "[2]": {"tested_on": "rat basophilic leukemia (RBL) cells", "assay": "Rate of dye uptake in live cells", "assay_type": "cell-based", "conditions": "1 μM-scale dye (3 μL of 1 mM in 3 mL), excited at 490 nm, emission 520 nm; ±~2 sec", "method": "Dye uptake data were acquired using rat basophilic leukemia (RBL) cells. A suspension of RBL cells at a concentration of 1×10^6 cells/mL is prepared in room-temperature HEPES-buffered Tyrode's buffer containing 0.1% bovine serum albumin. Three μL of a 1 mM dye solution (in DMSO) is added at T=0 to an acrylic, 1 cm pathlength fluorescence cuvette containing 3 mL of the previously prepared RBL cell suspension. The suspension is then stirred continuously with a Teflon-coated magnetic stir bar. The samples are excited at 490 nm, and the fluorescence emission of the suspension at 520 nm is measured at 200 msec intervals for at least 5 minutes. The T1/2 value represents the time, in seconds, required for the fluorescence of the suspension to reach an intensity half-way between basal fluorescence level and peak fluorescence (±~2 sec)."}, "NIH 3T3 fibroblasts": {"tested_on": "NIH 3T3 fibroblasts", "assay": "Discrimination of plasma membrane-compromised fibroblasts", "assay_type": "cell-based", "conditions": "0.1 or 1.0 μM dye, 5 minutes", "method": "NIH 3T3 fibroblasts are grown to 75% confluency on 18 mm^2 glass coverslips under standard tissue culture conditions. Coverslips of 3T3 cells are exposed to 0.0001% to 0.1% saponin in HEPES-buffered complete saline solution (HBSS) for 10 minutes at room temperature and subsequently rinsed into HBSS containing 0.1 or 1.0 μM Dye 4100. After incubation for 5 minutes, coverslips are washed with HBSS and mounted on glass microscope slides using glass coverslips as spacers to avoid crushing the cells. The cell fluorescence is observed in the epi-fluorescence microscope using a 40X 0.85 NA objective lens and a standard rhodamine long-pass filter set (546 nm excitation/580 nm emission)."}, "cells": {"tested_on": "cells", "conditions": "background art; cited from earlier work"}, "[3]": {"conditions": "illumination at 254 nm, 1 μM dye"}}, "note": "Where a name gives a salt, the structure may show the parent alone.", "data": [{"smiles": "CCN1C(=Cc2cc(Sc3ccccc3)nc3ccccc23)Sc2ccccc21", "note": "[Dye 509]", "values": [{"measurement": "fluorescence at 520 nm with increasing proportion of dead cells", "setting": "Saccharomyces cerevisiae", "value": "increase in fluorescence at 520 nm"}]}, {"smiles": "CCN(CC)c1cc(C=C2Sc3ccccc3N2CC)c2ccccc2n1", "note": "[Dye 510]", "values": [{"measurement": "detection limit in DNA gel", "setting": "[1]; illumination at 254 nm", "value": 180, "unit": "pg/band"}, {"measurement": "fluorescence colour of stained DNA-containing bands", "setting": "[1]; [3]", "value": "blue-green fluorescence"}]}, {"smiles": "Cc1cc(C=C2Sc3ccccc3N2C)nc2ccccc12", "note": "[Dye 523-1]", "values": [{"measurement": "T1/2 for cell loading", "setting": "[2]", "value": 41, "unit": "s"}]}, {"smiles": "Cc1cc(C=C2Sc3ccccc3N2C)c2ccccc2n1", "note": "[Dye 523-2]", "values": [{"measurement": "T1/2 for cell loading", "setting": "[2]", "value": 1, "unit": "s"}]}, {"smiles": "CN1C(=Cc2ccnc3ccccc23)Sc2ccccc21", "note": "[Dye 798, 4-(2,3-dihydro-3-methyl-(benzo-1,3-thiazol-2-yl)-methylidine)-quinolinium tosylate]", "values": [{"measurement": "detection limit in DNA gel", "setting": "[1]; illumination at 254 nm", "value": 350, "unit": "pg/band"}, {"measurement": "background staining of gel", "setting": "[1]; [3]", "value": "no observable background staining"}, {"measurement": "fluorescence colour of stained DNA-containing bands", "setting": "[1]; [3]", "value": "blue-green fluorescence"}, {"measurement": "T1/2 for cell loading", "setting": "[2]", "value": 3, "unit": "s"}]}, {"smiles": "CN1C(=Cc2ccnc3ccccc23)Oc2ccccc21", "note": "[Dye 799]", "values": [{"measurement": "T1/2 for cell loading", "setting": "[2]", "value": 2, "unit": "s"}]}, {"smiles": "CCN1C(=Cc2ccnc3ccccc23)Sc2ccccc21", "note": "[Dye 1266]", "values": [{"measurement": "T1/2 for cell loading", "setting": "[2]", "value": 2, "unit": "s"}]}, {"smiles": "CCCCc1cc(C=C2Sc3ccccc3N2CC)c2ccccc2n1", "note": "[Dye 1268]", "values": [{"measurement": "T1/2 for cell loading", "setting": "[2]", "value": 3, "unit": "s"}]}, {"smiles": "CCN1C(=Cc2cc(-c3ccccc3)nc3ccccc23)Sc2ccccc21", "note": "[Dye 4100]", "values": [{"measurement": "staining of cells with compromised plasma membranes", "setting": "NIH 3T3 fibroblasts; 0.0001% to 0.1% saponin", "value": "stain brightly"}, {"measurement": "staining of untreated 3T3 cells", "setting": "NIH 3T3 fibroblasts", "value": "virtually unstained"}]}, {"smiles": "CN1C(=Cc2ccncc2)Sc2ccccc21", "note": "[Dye 7101]", "values": [{"measurement": "T1/2 for cell loading", "setting": "[2]", "value": 7, "unit": "s"}]}, {"smiles": "CN1C(=Cc2cc[n+](C)c3ccccc23)Sc2ccccc21", "note": "[Thiazole Orange, reference compound]", "values": [{"measurement": "staining of cells", "setting": "cells", "value": "readily stains many mammalian cells, yet does not effectively stain some eukaryotic cells"}, {"measurement": "limit of detection in DNA gel", "setting": "[1]; illumination of 254 nm, comparison dye", "value": "1-2 ng/band"}, {"measurement": "T1/2 for cell loading", "setting": "[2]", "value": 9, "unit": "s"}]}]}
